{
  "source": "patent US5786355A",
  "about": "“4,6-diarylpyrimidine derivatives and salts thereof” (Taiho Pharmaceutical Co., Ltd., priority 1995, dated 1998)",
  "key": {"[1]": {"settings": "J. INDIAN CHEM. SOC., 70, 266-267(1993); cited from earlier work"}, "[2]": {"tested_on": "HUVEC (human umbilical vein endothelial cell)", "experiment": "HUVEC growth inhibition (3H-thymidine uptake)", "assay_type": "cell-based", "settings": "3000 cells per well, RPMI-1640 with ECGS, EGF and 2% serum, 48 hours + 17 hours with 3H-thymidine, control as 100%, read-out: IC50 (concentration showing a 50% growth inhibitory activity)", "experimental": "To a 96-well microplate, HUVEC (human umbilical vein endothelial cell; product of Kurabo Industries Ltd.) was added in an amount of 3000 cells per well, followed by culturing in 200 μl of RPMI-1640 medium (Nissui Pharmaceutical Co., Ltd.) containing 10 μg/ml of ECGS (Endothelial Cell Growth Supplement; Collaborative Co., Ltd.), 3 ng/ml of EGF ([…]; product of Genzyme Co., Ltd.) and 2% fatal calf serum at 37° C. for 48 hours using 5% CO2. To each well, 0.1 μCi (3.7 KBq) of ^3 H-Tymidine was added, followed by culturing for 17 hours. Then, the cells were collected on a glass filter and washed with 5% trichloroacetic acid and ethanol. The radioactivity taken in was measured by a β-plate (Pharmacia Laboratories, Inc.). The concentration showing a 50% growth inhibitory activity (IC50) was calculated with a control as 100%."}},
  "data": [
    {"smiles": "COc1ccc(-c2cc(-c3ccc(OC)c(OC)c3)nc(N)n2)c(OC)c1", "note": "[2-amino-4-(2,4-dimethoxyphenyl)-6-(3,4-dimethoxyphenyl)pyrimidine]", "values": [
      {"measurement": "antibacterial activity", "setting": "[1]", "value": "no antibacterial activity"}
    ]},
    {"smiles": "COc1cc(NS(C)(=O)=O)c(-c2cc(-c3cc(OC)c(OC)cc3OC)nc(N(C)C)n2)cc1OC", "note": "[Compound 27]", "values": [
      {"measurement": "IC50", "setting": "[2]", "value": 68, "unit": "nM"}
    ]},
    {"smiles": "COc1cc(OC)c(-c2cc(-c3cc(OC)c(OC)cc3OC)nc(N)n2)cc1OC", "note": "[Compound 3]", "values": [
      {"measurement": "IC50", "setting": "[2]", "value": 250, "unit": "nM"}
    ]},
    {"smiles": "COc1cc(OC)c(-c2cc(-c3cc(OC)c(OC)cc3OC)nc(N(C)C)n2)cc1OC", "note": "[Compound 2]", "values": [
      {"measurement": "IC50", "setting": "[2]", "value": 220, "unit": "nM"}
    ]},
    {"smiles": "CCN(CC)c1nc(-c2ccc(OP(=O)(O)O)cc2)cc(-c2cc(OC)c(OC)cc2OC)n1", "note": "[Compound 43]", "values": [
      {"measurement": "IC50", "setting": "[2]", "value": 330, "unit": "nM"}
    ]},
    {"smiles": "CCN(CC)c1nc(-c2ccc(OCCN3CCCCC3)cc2)cc(-c2cc(OC)c(OC)cc2OC)n1", "note": "[Compound 41]", "values": [
      {"measurement": "IC50", "setting": "[2]", "value": 1700, "unit": "nM"}
    ]},
    {"smiles": "COc1cc(OC)c(-c2cc(-c3nccs3)nc(N(C)C)n2)cc1OC", "note": "[Compound 30]", "values": [
      {"measurement": "IC50", "setting": "[2]", "value": 700, "unit": "nM"}
    ]},
    {"smiles": "COc1cc(OC)c(-c2cc(-c3cc(OC)c(OC)cc3OC)nc(NS(C)(=O)=O)n2)cc1OC", "note": "[Compound 31]", "values": [
      {"measurement": "IC50", "setting": "[2]", "value": 520, "unit": "nM"}
    ]},
    {"smiles": "COc1cc(OC)c(-c2cc(-c3cc(OC)c(O)c(OC)c3)nc(N(C)C)n2)cc1OC", "note": "[Compound 24]", "values": [
      {"measurement": "IC50", "setting": "[2]", "value": 210, "unit": "nM"}
    ]},
    {"smiles": "CCN(CC)c1nc(-c2ccc(OC)cc2OC)cc(-c2cc(OC)c(OC)cc2OC)n1", "note": "[Compound 17]", "values": [
      {"measurement": "IC50", "setting": "[2]", "value": 530, "unit": "nM"}
    ]},
    {"smiles": "CCN(CC)c1nc(-c2cc(OC)c(OC)cc2OC)cc(-c2cc(OC)c(OC)cc2OC)n1", "note": "[Compound 9]", "values": [
      {"measurement": "IC50", "setting": "[2]", "value": 360, "unit": "nM"}
    ]},
    {"smiles": "CCN(CC)c1nc(-c2cc(OC)c(OC)c(OC)c2)cc(-c2cc(OC)c(OC)cc2OC)n1", "note": "[Compound 20, 2-diethylamino-4-(3,4,5-trimethoxyphenyl)-6-(2,4,5-trimethoxyphenyl)pyrimidine]", "values": [
      {"measurement": "IC50", "setting": "[2]", "value": 530, "unit": "nM"}
    ]},
    {"smiles": "COc1cc(OC)c(-c2cc(-c3ccc(OCCN(C)C)cc3)nc(N(C)C)n2)cc1OC", "note": "[Compound 8]", "values": [
      {"measurement": "IC50", "setting": "[2]", "value": 1100, "unit": "nM"}
    ]}
  ]
}
